{"source": "patent US20100227841A1", "about": "“Patient populations and treatment methods” (Harbor BioSciencs, Inc., priority 2008, published 2010)", "tested_on": "patients having type 2 diabetes", "assay": "Phase II double-blinded placebo controlled 12-week trial in type 2 diabetes patients on metformin", "assay_type": "in vivo, human", "conditions": "for Fasting C-peptide Change from baseline / Fasting Glucose Change from baseline / HbA1c Change from baseline / LDL Cholesterol change from baseline / Total Cholesterol change from baseline / Weight change from baseline / HOMA2% insulin sensitivity change from baseline / HOMA2% β cell function change from baseline / HOMA2 Insulin resistance change from baseline: 5 mg twice per day + metformin; for HOMA2% insulin sensitivity change from baseline / HOMA2% β cell function change from baseline / HOMA2 Insulin resistance change from baseline: calculated using C-peptide", "protocol": "Patients having type 2 diabetes were evaluated for their baseline BMI and levels of MCP1, insulin and C peptide. The effect of treatment with 17α-ethynylandrost-5-ene-3β,7β,17β-triol (5 mg administered orally twice per day for 84 days) on total cholesterol, LDL cholesterol, hemoglobin A1c (HbA1c) plus metformin (500-2250 mg/day, which was administered in one or two doses per day for 84 days), weight, and other biological responses is shown in the tables below. The effect of treatment in all treated patients was compared with the effect of the same treatment in the responder population, characterized as having a BMI>27.99 (overweight or obese), insulin resistant (C-peptide >1.99 ng/mL or essentially normal insulin >3.99 μU/mL to about 29 μU/mL with hyperglycemia), and having an elevated serum MCP1>399.99 pg/mL, indicating a state of systemic inflammation. The responder patients were a subset of all patients were treated.\nThe Phase II, double-blinded placebo controlled 12-week dosing trial of example 4 enrolled 96 subjects with a hemoglobin A1c (HbA1c) level in excess of 7.5 percent and were being treated with a stable metformin dose as described above. The primary objectives of this trial were to evaluate the safety and tolerance of 17α-ethynylandrost-5-ene-3β,7β,17β-triol, 10 mg per day (5 mg twice daily), compared to placebo from baseline to week 12 and to evaluate the change in HbA1c from baseline to week 12 in the 17α-ethynylandrost-5-ene-3β,7β,17β-triol treated group when compared to the placebo group.\nA retrospective analysis of data was performed on the subpopulation of patients that represented an obese, insulin-resistant, diabetic population. This analysis included patients who met the following criteria at baseline: BMI greater than or equal to 28; fasting plasma insulin levels greater than or equal to 4 μU/mL; fasting plasma C-peptide levels greater than or equal to 2 ng/mL; and serum monocyte chemoattractant protein-1 (MCP1) levels greater than or equal to 400 pg/mL. This phenotype represented 35% of all 89 patients with values reported for these parameters at baseline. Twenty-two individuals with this phenotype completed the 84 days of dosing. […] These changes in secondary indicators of activity were consistent with the observed decreases in HbA1c and glucose in this diabetic subpopulation.", "key": {"[1]": {"conditions": "retrospective subpopulation, 84 days, compared to placebo, non-significant"}}, "data": [{"smiles": "C#C[C@]1(O)CC[C@H]2[C@@H]3[C@@H](O)C=C4C[C@@H](O)CC[C@]4(C)[C@H]3CC[C@@]21C", "note": "[17α-ethynylandrost-5-ene-3β,7β,17β-triol]", "values": [{"measurement": "Fasting C-peptide Change from baseline", "setting": "All patients, day 29", "value": -0.2, "unit": "ng/mL"}, {"measurement": "Fasting Glucose Change from baseline", "setting": "All patients, day 29", "value": -7.5, "unit": "mg/dL"}, {"measurement": "HbA1c Change from baseline", "setting": "All patients, day 29", "value": 0, "unit": "% Hb"}, {"measurement": "LDL Cholesterol change from baseline", "setting": "All patients, day 29", "value": 0.5, "unit": "mg/dL"}, {"measurement": "Total Cholesterol change from baseline", "setting": "All patients, day 29", "value": -0.5, "unit": "mg/dL"}, {"measurement": "Weight change from baseline", "setting": "All patients, day 29", "value": -0.4136, "unit": "kg"}, {"measurement": "Fasting C-peptide Change from baseline", "setting": "All patients, day 57", "value": -0.2, "unit": "ng/mL"}, {"measurement": "Fasting Glucose Change from baseline", "setting": "All patients, day 57", "value": 0, "unit": "mg/dL"}, {"measurement": "HbA1c Change from baseline", "setting": "All patients, day 57", "value": 0.1, "unit": "% Hb"}, {"measurement": "LDL Cholesterol change from baseline", "setting": "All patients, day 57", "value": -2, "unit": "mg/dL"}, {"measurement": "Total Cholesterol change from baseline", "setting": "All patients, day 57", "value": -5.5, "unit": "mg/dL"}, {"measurement": "Weight change from baseline", "setting": "All patients, day 57", "value": -0.4546, "unit": "kg"}, {"measurement": "Fasting C-peptide Change from baseline", "setting": "All patients, day 84", "value": -0.05, "unit": "ng/mL"}, {"measurement": "Fasting Glucose Change from baseline", "setting": "All patients, day 84", "value": -4.25, "unit": "mg/dL"}, {"measurement": "HbA1c Change from baseline", "setting": "All patients, day 84", "value": 0.15, "unit": "% Hb"}, {"measurement": "LDL Cholesterol change from baseline", "setting": "All patients, day 84", "value": 4.5, "unit": "mg/dL"}, {"measurement": "Total Cholesterol change from baseline", "setting": "All patients, day 84", "value": 3, "unit": "mg/dL"}, {"measurement": "Weight change from baseline", "setting": "All patients, day 84", "value": -0.03864, "unit": "kg"}, {"measurement": "HOMA2% insulin sensitivity change from baseline", "setting": "All patients, day 29", "value": 4.2, "unit": "% S"}, {"measurement": "HOMA2% β cell function change from baseline", "setting": "All patients, day 29", "value": 0.8, "unit": "% b"}, {"measurement": "HOMA2 Insulin resistance change from baseline", "setting": "All patients, day 29", "value": "−0.1453", "unit": "IR"}, {"measurement": "HOMA2% insulin sensitivity change from baseline", "setting": "All patients, day 57", "value": 1.75, "unit": "% S"}, {"measurement": "HOMA2% β cell function change from baseline", "setting": "All patients, day 57", "value": "−2.15", "unit": "% b"}, {"measurement": "HOMA2 Insulin resistance change from baseline", "setting": "All patients, day 57", "value": "−0.0518", "unit": "IR"}, {"measurement": "HOMA2% insulin sensitivity change from baseline", "setting": "All patients, day 84", "value": "−1.45", "unit": "% S"}, {"measurement": "HOMA2% β cell function change from baseline", "setting": "All patients, day 84", "value": 5.6, "unit": "% b"}, {"measurement": "HOMA2 Insulin resistance change from baseline", "setting": "All patients, day 84", "value": 0.02309, "unit": "IR"}, {"measurement": "HbA1c Change from baseline", "setting": "Responder patients (BMI>27.99, insulin resistant, MCP1>399.99 pg/mL), day 29", "value": "−0.15", "unit": "% Hb"}, {"measurement": "Fasting C-peptide Change from baseline", "setting": "Responder patients, day 29", "value": -0.2, "unit": "ng/mL"}, {"measurement": "Fasting Glucose Change from baseline", "setting": "Responder patients, day 29", "value": -17.5, "unit": "mg/dL"}, {"measurement": "LDL Cholesterol change from baseline", "setting": "Responder patients, day 29", "value": -8.5, "unit": "mg/dL"}, {"measurement": "Total Cholesterol change from baseline", "setting": "Responder patients, day 29", "value": -0.5, "unit": "mg/dL"}, {"measurement": "Weight change from baseline", "setting": "Responder patients, day 29", "value": -0.3727, "unit": "kg"}, {"measurement": "Fasting C-peptide Change from baseline", "setting": "Responder patients, day 57", "value": 0, "unit": "ng/mL"}, {"measurement": "Fasting Glucose Change from baseline", "setting": "Responder patients, day 57", "value": -7, "unit": "mg/dL"}, {"measurement": "HbA1c Change from baseline", "setting": "Responder patients, day 57", "value": "−0.1", "unit": "% Hb"}, {"measurement": "LDL Cholesterol change from baseline", "setting": "Responder patients, day 57", "value": -11.5, "unit": "mg/dL"}, {"measurement": "Total Cholesterol change from baseline", "setting": "Responder patients, day 57", "value": -18.5, "unit": "mg/dL"}, {"measurement": "Weight change from baseline", "setting": "Responder patients, day 57", "value": -0.925, "unit": "kg"}, {"measurement": "Fasting C-peptide Change from baseline", "setting": "Responder patients, day 84", "value": 0.25, "unit": "ng/mL"}, {"measurement": "Fasting Glucose Change from baseline", "setting": "Responder patients, day 84", "value": -13, "unit": "mg/dL"}, {"measurement": "HbA1c Change from baseline", "setting": "Responder patients, day 84", "value": "−0.425", "unit": "% Hb"}, {"measurement": "LDL Cholesterol change from baseline", "setting": "Responder patients, day 84", "value": -7.5, "unit": "mg/dL"}, {"measurement": "Total Cholesterol change from baseline", "setting": "Responder patients, day 84", "value": -14.5, "unit": "mg/dL"}, {"measurement": "Weight change from baseline", "setting": "Responder patients, day 84", "value": -1.33, "unit": "kg"}, {"measurement": "HOMA2% insulin sensitivity change from baseline", "setting": "Responder patients, day 29", "value": 3.9, "unit": "% S"}, {"measurement": "HOMA2% β cell function change from baseline", "setting": "Responder patients, day 29", "value": 2.1, "unit": "% b"}, {"measurement": "HOMA2 Insulin resistance change from baseline", "setting": "Responder patients, day 29", "value": "−0.3061", "unit": "IR"}, {"measurement": "HOMA2% insulin sensitivity change from baseline", "setting": "Responder patients, day 57", "value": 1, "unit": "% S"}, {"measurement": "HOMA2% β cell function change from baseline", "setting": "Responder patients, day 57", "value": 5.3, "unit": "% b"}, {"measurement": "HOMA2 Insulin resistance change from baseline", "setting": "Responder patients, day 57", "value": "−0.04016", "unit": "IR"}, {"measurement": "HOMA2% insulin sensitivity change from baseline", "setting": "Responder patients, day 84", "value": "−4.4", "unit": "% S"}, {"measurement": "HOMA2% β cell function change from baseline", "setting": "Responder patients, day 84", "value": 16.3, "unit": "% b"}, {"measurement": "HOMA2 Insulin resistance change from baseline", "setting": "Responder patients, day 84", "value": 0.2265, "unit": "IR"}, {"measurement": "HbA1c, treatment vs placebo", "setting": "entire 72 patient population that completed dosing on day 84", "value": "no statistical difference"}, {"measurement": "decrease in HbA1c", "setting": "retrospective subpopulation (BMI>=28, insulin>=4 μU/mL, C-peptide>=2 ng/mL, MCP1>=400 pg/mL), 84 days, compared to placebo, p=0.06", "value": "−0.53", "unit": "%"}, {"measurement": "decrease in HOMA2 insulin resistance", "setting": "[1]", "value": "−0.65", "unit": "IR"}, {"measurement": "decrease in fasting plasma C-peptide", "setting": "[1]", "value": -0.43, "unit": "ng/mL"}, {"measurement": "decrease in fasting plasma insulin", "setting": "[1]", "value": "−0.48", "unit": "μU/mL"}, {"measurement": "decrease in fructosamine", "setting": "[1]", "value": -25.75, "unit": "µmol/L"}, {"measurement": "increase in HOMA2 beta cell function", "setting": "[1]", "value": 17.95, "unit": "% B"}, {"measurement": "increase in HOMA2 insulin sensitivity", "setting": "[1]", "value": 11.3, "unit": "% S"}, {"measurement": "decrease in fasting plasma glucose", "setting": "retrospective subpopulation, 84 days, compared to placebo, p=0.09", "value": -28.75, "unit": "mg/dL"}, {"measurement": "sensitivity analysis using last observation carried forward", "setting": "subpopulation individuals who completed at least 29 days of dosing", "value": "showed improvement"}]}]}
